Source: patent US8389555B2, “Medicaments” (Motac Neuroscience Limited, priority 2007, dated 2013)
Structures can show the parent of a compound that is named as a salt.

How the values were obtained:
[1] = target: T1, human dopamine D3 receptors (Homo sapiens, UniProt P35462); test: Dopamine D3 receptor binding assay ([3H]spiperone, CHO cell membranes); conditions: for Ki: human D3 receptors in CHO cells, 0.2 nM [3H]spiperone, mean ± SEM, read-out: Affinity Ki (D3); for Selectivity Ki(D2)/Ki(D3): ratio of Ki(D2) to Ki(D3)
T1 construct: expressed in transfected cells
T1 sequence (P35462 whole entry): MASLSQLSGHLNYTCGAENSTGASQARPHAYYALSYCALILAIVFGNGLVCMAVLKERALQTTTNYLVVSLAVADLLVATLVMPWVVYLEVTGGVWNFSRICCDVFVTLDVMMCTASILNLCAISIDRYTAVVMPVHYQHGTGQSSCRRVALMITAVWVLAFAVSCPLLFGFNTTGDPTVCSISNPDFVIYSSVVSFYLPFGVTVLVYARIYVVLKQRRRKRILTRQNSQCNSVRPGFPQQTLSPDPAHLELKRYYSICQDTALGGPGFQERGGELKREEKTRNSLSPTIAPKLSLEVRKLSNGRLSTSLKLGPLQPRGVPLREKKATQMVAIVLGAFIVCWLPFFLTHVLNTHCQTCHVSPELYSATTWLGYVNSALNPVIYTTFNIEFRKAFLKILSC
Protocol: (§1) Compounds synthesized in Examples A, B, C and D were assayed to test their affinity for dopamine D3 and D2 receptors.
(§2) METHODS: Dopamine D2S and D3 Receptor Binding Assays
Human D3 receptors stably expressed in CHO cells were used as described by Sokoloff et al. (Sokoloff, P. et al., Eur. J. Pharmacol. 1992, 225, 331-337). The cell line was cultured in Dulbecco's modified Eagle's medium supplemented with 2 mM glutamine, and 10% dialyzed fetal bovine serum, and were grown in an atmosphere of 5% CO2 at 37° C. (Gibco™).
(§3) Human D2S- and D3 receptors expressing cell lines were grown to confluence. The medium was removed, and the cells were washed with 10 ml PBS buffer (140 mM NaCl, 3 mM KCl, 1.5 mM KH2PO4, 8 mM Na2HPO4, pH 7.4) at 4° C. After removing the wash buffer, the cells were scraped from the flasks into 15 ml of ice-cold media, and centrifuged at 3,000 rpm for 10 minutes at 4° C. After centrifugation the medium was removed and the […] resuspended in ice-cold Tris-HCl buffer containing 5 mM MgCl2, pH 7.4 and disrupted with a Polytron and centrifuged at 20,000 rpm, for 30 minutes at 4° C. The pellet was resuspended by sonication in ice-cold Tris-HCl buffer (containing 5 mM MgCl2, pH 7.4), membrane aliquots were stored at −70° C. Determination of membrane protein was carried out by the method of Bradford (Bradford, M. M. Anal Biochem 1976, 72, 248-54).
(§4) Cell membranes containing human D2S and D3 receptors from CHO cells were thawed, rehomogenized with sonication at 4° C. in Tris-HCl, pH 7.4 containing 120 mM NaCl, 5 mM KCl, 2 mM CaCl2 and 1 mM MgCl2 (incubation buffer), and incubated with 0.2 nM [^3H]spiperone (106 Ci·mmol^−1, Amersham Biosciences, Freiburg, Germany), and drug diluted in incubation buffer. Non-specific binding was determined in the presence of 10 μM BP 897 ((Wermuth, C. G. et al. in Chem. Abstr. (Eur. Pat. 0779284, 1997)). Incubations were run at 25° C. for 120 min, and terminated by rapid filtration through PerkinElmer GF/B glass fibre filters (PerkinElmer Life Sciences, Rodgau, Germany) coated in 0.3% polyethylenimine (Sigma-Aldrich, Taufkirchen, Germany) using an Inotech cell harvester (Inotech AG, Dottikon, Switzerland). Unbound radioligand was removed with four washes of 1 ml of ice-cold 50 mM Tris-HCl buffer, pH 7.4, containing 120 mM NaCl. The filters were soaked in 9 ml Beta plate scint scintillator and counted using a PerkinElmer MicroBeta®Trilux scintillation counter (PerkinElmer Life Sciences). Competition binding data were analyzed by the software GraphPad Prism™ (2000, version 3.02, San Diego, Calif., USA), using non-linear least squares fit. For detailed screening the compounds have been tested at seven concentrations in triplicate carrying out three to five separate binding experiments for human dopamine D2S and for human dopamine D3 receptors and expressed as mean±standard error of the mean (SEM). Ki values were calculated from the IC50 values according to Cheng-Prusoff equation (Cheng, Y. C., Prusoff, W. H. Biochem. Pharmacol. 1973, 22, 3099-3108.).

[2] = target: T2, recombinant human D2(short) dopamine receptor (Homo sapiens, UniProt P14416); test: Dopamine D2S receptor binding assay ([3H]spiperone, CHO cell membranes); conditions: human D2S receptors in CHO cells, 0.2 nM [3H]spiperone, mean ± SEM; read-out: Affinity Ki (D2)
T2 construct: expressed in transfected cells; host or cells: CHO-D2S cells (per Hayes et al. 1992)
T2 sequence (P14416 1-414 isoform P14416-2): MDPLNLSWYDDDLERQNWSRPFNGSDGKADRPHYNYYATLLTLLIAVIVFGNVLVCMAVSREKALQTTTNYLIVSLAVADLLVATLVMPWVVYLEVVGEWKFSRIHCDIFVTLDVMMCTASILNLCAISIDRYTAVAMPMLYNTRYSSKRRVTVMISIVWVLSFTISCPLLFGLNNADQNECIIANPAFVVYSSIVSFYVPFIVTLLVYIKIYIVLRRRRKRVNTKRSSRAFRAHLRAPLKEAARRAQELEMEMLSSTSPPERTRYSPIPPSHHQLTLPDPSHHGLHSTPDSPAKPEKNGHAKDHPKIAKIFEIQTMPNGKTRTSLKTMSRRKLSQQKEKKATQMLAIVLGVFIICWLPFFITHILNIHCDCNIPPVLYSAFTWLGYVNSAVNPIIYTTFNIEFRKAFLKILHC
Protocol: as §1, §2
CHO-D2S cells, expressing the recombinant human D2(short) dopamine receptor gene, (Hayes, G. et al., J. Mol. Endocrinol. 1992, 6, 920-926) were grown in Dulbecco's modified Eagle's medium/nutrient mixture F12 1:1 mixture supplemented with 2 mM glutamine, 10% fetal bovine serum, and 10 μl·ml^−1 penicillin/streptomycin in an atmosphere of 5% CO2 at 37° C. (Gibco™, Karlsruhe, Germany).
as §3, §4

Structure (SMILES) | melting point | Ki [1] | Selectivity Ki(D2)/Ki(D3) [1] | Ki [2]
CN(CCCCNC(=O)c1ccc2ccccc2c1)C1CCc2ncsc2C1 (stereo not drawn) (as salt: salt) [Compound 3, Naphthalene-2-carboxylic acid {4-[methyl-(4,5,6,7-tetrahydro-benzothiazol-6-yl)-amino]-butyl}-amide] | 122 °C | – | – | –
CCN(CCCCNC(=O)c1ccc2ccccc2c1)C1CCc2ncsc2C1 (stereo not drawn) (as salt: salt) [Compound 4, Naphthalene-2-carboxylic acid {4-[ethyl-(4,5,6,7-tetrahydro-benzothiazol-6-yl)-amino]-butyl}-amide] | 120 °C | – | – | –
C=CCN(CCCCNC(=O)c1ccc2ccccc2c1)C1CCc2ncsc2C1 (stereo not drawn) (as salt: salt) [Compound 6, Naphthalene-2-carboxylic acid {4-[allyl-(4,5,6,7-tetrahydro-benzothiazol-6-yl)-amino]-butyl}-amide] | 128 °C | – | – | –
C#CCN(CCCCNC(=O)c1ccc2ccccc2c1)C1CCc2ncsc2C1 (stereo not drawn) (as salt: salt) [Compound 7, Naphthalene-2-carboxylic acid {4-[prop-2-ynyl-(4,5,6,7-tetrahydro-benzothiazol-6-yl)-amino]-butyl}-amide] | 126 °C | – | – | –
CC#CCN(CCCCNC(=O)c1ccc2ccccc2c1)C1CCc2ncsc2C1 (stereo not drawn) (as salt: salt) [Compound 8, Naphthalene-2-carboxylic acid {4-[but-2-ynyl-(4,5,6,7-tetrahydro-benzothiazol-6-yl)-amino]-butyl}-amide] | 147 °C | – | – | –
CN(CCCCNC(=O)c1cc2ccccc2s1)C1CCc2ncsc2C1 (stereo not drawn) (as salt: salt) [Compound 11, Benzo[b]thiophene-2-carboxylic acid {4-[methyl-(4,5,6,7-tetrahydro-benzothiazol-6-yl)-amino]-butyl}-amide] | 105 °C | – | – | –
CCN(CCCCNC(=O)c1cc2ccccc2s1)C1CCc2ncsc2C1 (stereo not drawn) (as salt: salt) [Compound 12, Benzo[b]thiophene-2-carboxylic acid {4-[ethyl-(4,5,6,7-tetrahydro-benzothiazol-6-yl)-amino]-butyl}-amide] | 103 °C | – | – | –
CCN(CCN1CCN(c2ccccc2OC)CC1)C1CCc2ncsc2C1 (stereo not drawn) [Compound 28] | – | 13.5 ± 1.1 nM | 11 | 148 ± 23 nM
CCN(CCN1CCc2ccccc2C1)C1CCc2ncsc2C1 (stereo not drawn) [Compound 31, [2-(3,4-Dihydro-1H-isoquinolin-2-yl)-ethyl]-ethyl-(4,5,6,7-tetrahydro-benzothiazol-6-yl)-amine] | – | 26.5 ± 4.4 nM | 35 | 929 ± 103 nM
CCN(CCNC(=O)c1ccc2ccccc2c1)C1CCc2ncsc2C1 (stereo not drawn) [Compound 32, Naphthalene-2-carboxylic acid {2-[ethyl-(4,5,6,7-tetrahydro-benzothiazol-6-yl)-amino]-ethyl}-amide] | – | 67.8 ± 21.4 nM | 38 | 2550 ± 302 nM
CCCN(CCCCNC(=O)NC1Cc2ccccc2C1)C1CCc2ncsc2C1 (stereo not drawn) [Compound 60, 1-Indan-2-yl-3-{4-[propyl-(4,5,6,7-tetrahydrobenzothiazol-6-yl)amino]butyl}urea] | – | 3.36 ± 1.21 nM | 649 | 2180 ± 1640 nM
O=C(NCCCCNC1CCc2ncsc2C1)c1nc2ccccc2s1 (stereo not drawn) [Compound 63, N-(4-(4,5,6,7-Tetrahydrobenzo[d]thiazol-6-ylamino)butyl)benzo[d]thiazole-2-carboxamide] | – | 1900 ± 510 nM | 13 | 24500 ± 7580 nM
CCCN(CCCCNC(=O)C12CC3CC(CC(C3)C1)C2)C1CCc2ncsc2C1 (stereo not drawn) [Compound 65] | – | 0.95 nM | 2879 | 2740 ± 1080 nM

Continued, values first:

melting point | Ki [1] | Selectivity Ki(D2)/Ki(D3) [1] | Ki [2] | Structure (SMILES)
152 °C | – | – | – | CCCN(CCCCNC(=O)c1ccccc1)C1CCc2ncsc2C1 (stereo not drawn) (as salt: salt) [Compound 1, N-{4-[Propyl-(4,5,6,7-tetrahydro-benzothiazol-6-yl)-amino]-butyl}-benzamide]
85 °C | – | – | – | CCCN(CCCCC(=O)Nc1ccc2ccccc2c1)C1CCc2ncsc2C1 (stereo not drawn) (as salt: salt) [Compound 9, 5-[Propyl-(4,5,6,7-tetrahydro-benzothiazol-6-yl)-amino]-pentanoic acid naphthalen-2-ylamide]
– | 89 ± 1.7 nM | 2 | 140 ± 122 nM | CCN(CCCN1CCN(c2ccccc2OC)CC1)C1CCc2ncsc2C1 (stereo not drawn) [Compound 29, Ethyl-{3-[4-(2-methoxy-phenyl)-piperazin-1-yl]-propyl}-(4,5,6,7-tetrahydro-benzothiazol-6-yl)-amine]
– | 55.3 ± 16.1 nM | 8.7 | 480 ± 51 nM | CCN(CCCCN1CCN(c2ccccc2OC)CC1)C1CCc2ncsc2C1 (stereo not drawn) [Compound 30, Ethyl-{4-[4-(2-methoxy-phenyl)-piperazin-1-yl]-butyl}-(4,5,6,7-tetrahydro-benzothiazol-6-yl)-amine]
– | 35 ± 22 nM | 4 | 129 ± 36 nM | CCCN(CCCN1CCN(c2cccc(Cl)c2Cl)CC1)C1CCc2ncsc2C1 (stereo not drawn) [Compound 36, {3-[4-(2,3-Dichloro-phenyl)-piperazin-1-yl]-propyl}-propyl-(4,5,6,7-tetrahydro-benzothiazol-6-yl)-amine]
– | 7.6 ± 1.6 nM | 7 | 79.4 ± 49.7 nM | CCCN(CCCCN1CCN(c2cccc(Cl)c2Cl)CC1)C1CCc2ncsc2C1 (stereo not drawn) [Compound 37, {4-[4-(2,3-Dichloro-phenyl)-piperazin-1-yl]-butyl}-propyl-(4,5,6,7-tetrahydro-benzothiazol-6-yl)-amine]
– | 27.4 ± 14.8 nM | 192 | 5270 ± 1850 nM | CCCN(CCN1CCN(C(=O)c2ccccc2)CC1)C1CCc2ncsc2C1 (stereo not drawn) [Compound 38, [2-(4-Benzoyl-piperazin-1-yl)-ethyl]-propyl-(4,5,6,7-tetrahydro-benzothiazol-6-yl)-amine]
– | 2.09 ± 0.57 nM | 1640 | 3430 ± 1290 nM | CCCN(CCCCNC(=O)N1CCN(c2ccccc2)CC1)C1CCc2ncsc2C1 (stereo not drawn) [Compound 61, 4-Phenylpiperazine-1-carboxylic acid {4-[propyl-(4,5,6,7-tetrahydrobenzothiazol-6-yl)amino]butyl}amide]
– | 7.31 ± 2.86 nM | 667 | 4880 ± 1890 nM | CCCN(CCCCNC(=O)N1CC=C(c2ccccc2)CC1)C1CCc2ncsc2C1 (stereo not drawn) [Compound 62, 4-Phenyl-3,6-dihydro-2H-pyridine-1-carboxylic acid {4-[propyl-(4,5,6,7-tetrahydrobenzothiazol-6-yl)amino]butyl}amide]
– | 6.29 ± 1.8 nM | 435 | 2730 ± 611 nM | CCCN(CCCCNC(=O)N1CCC(c2ccccc2)CC1)C1CCc2ncsc2C1 (stereo not drawn) [Compound 64, 4-phenyl-N-(4-(propyl-(4,5,6,7-tetrahydrobenzo [d]thiazol-6-yl)amino)butyl)piperidine-1-carboxamide]
– | 7.23 ± 1 nM | 572 | 4130 ± 1560 nM | CCCN(CCCCC(=O)N1CCN(c2ccccc2)CC1)C1CCc2ncsc2C1 (stereo not drawn) [Compound 66, 1-(4-Phenylpiperazin-1-yl)-5-(propyl-(4,5,6,7-tetrahydrobenzothiazol-6-yl)amino)pentan-1-one]
– | 51 ± 10 nM | 91 | 4670 ± 1320 nM | CCCN(CCOc1ccccc1)C1CCc2ncsc2C1 (stereo not drawn) [Compound 69, N-(2-Phenoxyethyl)-N-propyl-4,5,6,7-tetrahydrobenzothiazol-6-amine]
